The values below come from the supplement of paper PMC6965134.

± gives the standard deviation of the averaged measurements.

The data set in a line: TIMS collisional cross section (CCS, N2) of the lipid ion; higher = larger ion cross section. The note with it: ionization mode: negative, one isomer drawn. The method, then:
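Lipid extracts of human plasma (NIST SRM 1950), mouse liver or HeLa cells were separated by nanoflow C18 LC (30 min gradient) and analysed by TIMS-PASEF on a timsTOF Pro. Ion mobility was calibrated with the Agilent tuning mix (negative mode ions) and converted to collisional cross sections (Mason–Schamp, N2).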

Setting [1] is: sample type: Human plasma, ion (formula + adduct): [C48H84NO8P+HCOO] 1-.
[2] abbreviates: sample type: Mouse Liver, ion (formula + adduct): [C46H86NO8P+HCOO] 1-.
Where [3] appears, read: sample type: Human plasma, ion (formula + adduct): [C46H82NO8P+HCOO] 1-.
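Note: lipids from MTBE extraction, five replicate injections per sample, 100 ms TIMS ramp spanning 0.6–1.95 Vs/cm², lipid identity assigned from PASEF MS/MS spectra.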

As for `CC/C=C\C/C=C\C/C=C\C/C=C\C/C=C\C/C=C\CCC(=O)O[C@H](COC(=O)CCCCCCCCCCCCCCCCC)COP(=O)([O-])OCC[N+](C)(C)C` [PC 18:0@_22:6], the “TIMS collisional cross section” value under setting [1] is on record as 303.4 Å². Turning to `C=CC(=O)O[C@H](COC(=O)CCCCCCCCCCCCCCCCC)COP(=O)([O-])OCC[N+](C)(C)C` [PC 18:0_3:1@], the “TIMS collisional cross section” value (sample type: Mouse Liver, ion (formula + adduct): [C29H56NO8P+AcO] 1-) turned out to be 260.8 Å² and the “TIMS collisional cross section” value (sample type: Mouse Liver, ion (formula + adduct): [C29H56NO8P+HCOO] 1-) is given as 243.4 Å².

For `C=CC(=O)O[C@H](COC(=O)CCCCCCCCCCCCCCCCC)COP(=O)([O-])OCC[N+](C)(C)C` [PC 18:0_3:1], the “TIMS collisional cross section” value (sample type: Human plasma, ion (formula + adduct): [C29H56NO8P+AcO] 1-) was 252.1 Å². With `CCCCCCCCCCCCCCCCCC(=O)OC[C@H](COP(=O)([O-])OCC[N+](C)(C)C)OC(=O)CCCCCCCCCCCCCCCCC` [PC 18:0_18:0], the “TIMS collisional cross section” value (sample type: Mouse Liver, ion (formula + adduct): [C44H88NO8P+HCOO] 1-) amounted to 298.4 Å².

As to `CCCCC/C=C\C=C/CCCCCCCCC(=O)O[C@H](COC(=O)CCCCCCCCCCCCCCCCC)COP(=O)([O-])OCC[N+](C)(C)C` [PC 18:0_18:2], the “TIMS collisional cross section” value reads like this: (sample type: Human plasma, ion (formula + adduct): [C44H84NO8P+HCOO] 1-) 296.5 ± 0.35 Å²; (sample type: Mouse Liver, ion (formula + adduct): [C44H84NO8P+HCOO] 1-) 295.9 ± 0.17 Å². For `CCCCCCCC/C=C\CCCCCCCCCC(=O)O[C@H](COC(=O)CCCCCCCCCCCCCCCCC)COP(=O)([O-])OCC[N+](C)(C)C` [PC 18:0_20:1], the “TIMS collisional cross section” value (sample type: Mouse Liver, ion (formula + adduct): [C46H90NO8P+HCOO] 1-) was found to be 302.3 Å². With `CCCCC/C=C\C/C=C\CCCC/C=C\CCCC(=O)O[C@H](COC(=O)CCCCCCCCCCCCCCCCC)COP(=O)([O-])OCC[N+](C)(C)C` [PC 18:0_20:3@], the “TIMS collisional cross section” value under setting [2] is on record as 300.6 Å². Turning to `CCCCC/C=C\C/C=C\CCCC/C=C\CCCC(=O)O[C@H](COC(=O)CCCCCCCCCCCCCCCCC)COP(=O)([O-])OCC[N+](C)(C)C` [PC 18:0_20:3], the “TIMS collisional cross section” value came out at 300.6 Å² (sample type: Human plasma, ion (formula + adduct): [C46H86NO8P+HCOO] 1-) and 300 Å² under setting [2]. With `CCCCC/C=C\C/C=C\C/C=C\C/C=C\CCCC(=O)O[C@H](COC(=O)CCCCCCCCCCCCCCCCC)COP(=O)([O-])OCC[N+](C)(C)C` [PC 18:0_20:4], the “TIMS collisional cross section” value is reported as 299.5 Å² (sample type: Human plasma, ion (formula + adduct): [C46H84NO8P+HCOO] 1-); 299.5 ± 0.85 Å² (sample type: Mouse Liver, ion (formula + adduct): [C46H84NO8P+HCOO] 1-); 282.4 Å² (sample type: Mouse Liver, ion (formula + adduct): [C46H84NO8P-CH3] 1-). Regarding `CC/C=C\C/C=C\C/C=C\C/C=C\C/C=C\CCCC(=O)O[C@H](COC(=O)CCCCCCCCCCCCCCCCC)COP(=O)([O-])OCC[N+](C)(C)C` [PC 18:0_20:5], under setting [3], the “TIMS collisional cross section” value was 299.5 Å².

With `CCCCC/C=C\C/C=C\C/C=C\C/C=C\CCCCCC(=O)O[C@H](COC(=O)CCCCCCCCCCCCCCCCC)COP(=O)([O-])OCC[N+](C)(C)C` [PC 18:0_22:4], the “TIMS collisional cross section” value is, setting by setting: (sample type: Human plasma, ion (formula + adduct): [C48H88NO8P+HCOO] 1-) 305.1 Å²; (sample type: Mouse Liver, ion (formula + adduct): [C48H88NO8P+HCOO] 1-) 304.5 Å². Regarding `CC/C=C\C/C=C\C/C=C\C/C=C\C/C=C\C/C=C\CCC(=O)O[C@H](COC(=O)CCCCCCCCCCCCCCCCC)COP(=O)([O-])OCC[N+](C)(C)C` [PC 18:0_22:6], the “TIMS collisional cross section” value is 303.4 Å² under setting [1] and 302.2 Å² (sample type: Mouse Liver, ion (formula + adduct): [C48H84NO8P+HCOO] 1-).

As to `CC/C=C\C/C=C\C/C=C\CCCCCCCC(=O)O[C@H](COC(=O)CCCCCCC/C=C\CCCCCCCC)COP(=O)([O-])OCC[N+](C)(C)C` [PC 18:1@_18:3], the “TIMS collisional cross section” value (sample type: Mouse Liver, ion (formula + adduct): [C44H80NO8P+HCOO] 1-) stood at 292.7 Å².

As to `CCCCC/C=C\C/C=C\C/C=C\C/C=C\CCCC(=O)O[C@H](COC(=O)CCCCCCC/C=C\CCCCCCCC)COP(=O)([O-])OCC[N+](C)(C)C` [PC 18:1@_20:4], the “TIMS collisional cross section” value under setting [3] was 298.3 Å².
